# Results published in ChEMBL document CHEMBL4304811, “Development of a Water-Soluble Indolylmaleimide Derivative IM-93 Showing Dual Inhibition of Ferroptosis and NETosis” (ACS Med Chem Lett, 2019).
# How the values were obtained:
# [1] = test system: ALK tyrosine kinase receptor (Homo sapiens), Q9UM73 [L1196M]; assay: Binding affinity to […] human partial length ALK L1196M mutant (I1088 to E1409 residues) expressed in mammalian expression system assessed as residual binding level at 10 uM by Kinomescan method relative to control
# [2] = target: Cyclin-dependent kinase 13 (Homo sapiens) (UniProt Q14004); assay: Binding affinity to wild-type human partial length CDC2L5 (H675 to S1054 residues) expressed in mammalian expression system assessed as residual binding level at 10 uM by Kinomescan method relative to control
# Cyclin-dependent kinase 13 (Homo sapiens), sequence (Q14004 whole entry, looked up, the tested form may be a part): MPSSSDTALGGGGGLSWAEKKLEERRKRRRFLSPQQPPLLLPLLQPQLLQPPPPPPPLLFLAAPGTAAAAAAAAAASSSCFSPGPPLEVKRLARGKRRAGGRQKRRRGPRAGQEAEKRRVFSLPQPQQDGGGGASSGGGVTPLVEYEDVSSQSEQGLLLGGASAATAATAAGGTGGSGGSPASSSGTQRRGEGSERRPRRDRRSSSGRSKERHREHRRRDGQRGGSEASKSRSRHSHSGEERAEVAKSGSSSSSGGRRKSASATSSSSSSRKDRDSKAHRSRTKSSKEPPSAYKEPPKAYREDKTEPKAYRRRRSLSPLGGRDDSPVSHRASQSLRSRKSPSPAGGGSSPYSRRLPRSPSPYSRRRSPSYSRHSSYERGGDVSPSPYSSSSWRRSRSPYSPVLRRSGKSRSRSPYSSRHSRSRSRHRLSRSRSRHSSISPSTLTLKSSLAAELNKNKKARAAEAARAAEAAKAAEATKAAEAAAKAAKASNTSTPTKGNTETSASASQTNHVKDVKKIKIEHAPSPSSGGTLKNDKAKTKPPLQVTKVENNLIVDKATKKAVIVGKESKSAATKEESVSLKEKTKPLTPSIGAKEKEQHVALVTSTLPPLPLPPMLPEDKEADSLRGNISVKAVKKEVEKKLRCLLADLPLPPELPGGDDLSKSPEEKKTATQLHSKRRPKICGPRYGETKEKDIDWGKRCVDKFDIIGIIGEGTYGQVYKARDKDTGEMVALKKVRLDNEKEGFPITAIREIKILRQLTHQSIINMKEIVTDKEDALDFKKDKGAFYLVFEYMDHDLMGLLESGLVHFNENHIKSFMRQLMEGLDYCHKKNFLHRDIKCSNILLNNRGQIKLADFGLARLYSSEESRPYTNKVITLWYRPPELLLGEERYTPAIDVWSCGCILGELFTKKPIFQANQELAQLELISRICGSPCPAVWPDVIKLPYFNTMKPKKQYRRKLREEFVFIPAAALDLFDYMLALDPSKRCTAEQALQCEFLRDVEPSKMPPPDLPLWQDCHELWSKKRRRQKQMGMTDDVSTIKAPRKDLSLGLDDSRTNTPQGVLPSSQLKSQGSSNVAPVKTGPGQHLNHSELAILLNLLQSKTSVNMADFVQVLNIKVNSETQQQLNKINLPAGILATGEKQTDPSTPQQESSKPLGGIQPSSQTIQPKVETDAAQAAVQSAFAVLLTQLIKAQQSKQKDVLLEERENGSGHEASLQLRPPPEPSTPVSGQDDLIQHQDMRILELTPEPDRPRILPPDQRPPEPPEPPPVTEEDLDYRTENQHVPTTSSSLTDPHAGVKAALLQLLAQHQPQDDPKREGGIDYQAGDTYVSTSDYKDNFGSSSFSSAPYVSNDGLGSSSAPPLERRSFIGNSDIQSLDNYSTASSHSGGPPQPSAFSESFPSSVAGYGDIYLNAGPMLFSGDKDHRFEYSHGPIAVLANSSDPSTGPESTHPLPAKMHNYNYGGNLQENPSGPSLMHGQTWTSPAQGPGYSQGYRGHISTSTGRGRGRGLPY
# [3] = target: Cyclin-dependent kinase 2 (Homo sapiens) (UniProt P24941); assay: Binding affinity to wild-type human full length CDK2 (M1 to L298 residues) expressed in bacterial expression system assessed as residual binding level at 10 uM by Kinomescan method relative to control
# [4] = target: Cyclin-dependent kinase 8 (Homo sapiens) (UniProt P49336); assay: Binding affinity to wild-type human partial length CDK8 (M1 to T360 residues) expressed in bacterial expression system assessed as residual binding level at 10 uM by Kinomescan method relative to control
# [5] = target: Dual specificity protein kinase CLK4 (Homo sapiens) (UniProt Q9HAZ1); assay: Binding affinity to wild-type human partial length CLK4 (R135 to K481 residues) expressed in bacterial expression system assessed as residual binding level at 10 uM by Kinomescan method relative to control
# [6] = test system: Epidermal growth factor receptor (Homo sapiens), P00533 [UNDEFINED MUTATION]; assay: Binding affinity to human partial length EGFR L747-E749del/A750P mutant expressed in bacterial expression system assessed as residual binding level at 10 uM by Kinomescan method relative to control
# Epidermal growth factor receptor (Homo sapiens), P00533 [UNDEFINED MUTATION], sequence (P00533 whole entry, looked up, stated change not applied, the tested form may be a part): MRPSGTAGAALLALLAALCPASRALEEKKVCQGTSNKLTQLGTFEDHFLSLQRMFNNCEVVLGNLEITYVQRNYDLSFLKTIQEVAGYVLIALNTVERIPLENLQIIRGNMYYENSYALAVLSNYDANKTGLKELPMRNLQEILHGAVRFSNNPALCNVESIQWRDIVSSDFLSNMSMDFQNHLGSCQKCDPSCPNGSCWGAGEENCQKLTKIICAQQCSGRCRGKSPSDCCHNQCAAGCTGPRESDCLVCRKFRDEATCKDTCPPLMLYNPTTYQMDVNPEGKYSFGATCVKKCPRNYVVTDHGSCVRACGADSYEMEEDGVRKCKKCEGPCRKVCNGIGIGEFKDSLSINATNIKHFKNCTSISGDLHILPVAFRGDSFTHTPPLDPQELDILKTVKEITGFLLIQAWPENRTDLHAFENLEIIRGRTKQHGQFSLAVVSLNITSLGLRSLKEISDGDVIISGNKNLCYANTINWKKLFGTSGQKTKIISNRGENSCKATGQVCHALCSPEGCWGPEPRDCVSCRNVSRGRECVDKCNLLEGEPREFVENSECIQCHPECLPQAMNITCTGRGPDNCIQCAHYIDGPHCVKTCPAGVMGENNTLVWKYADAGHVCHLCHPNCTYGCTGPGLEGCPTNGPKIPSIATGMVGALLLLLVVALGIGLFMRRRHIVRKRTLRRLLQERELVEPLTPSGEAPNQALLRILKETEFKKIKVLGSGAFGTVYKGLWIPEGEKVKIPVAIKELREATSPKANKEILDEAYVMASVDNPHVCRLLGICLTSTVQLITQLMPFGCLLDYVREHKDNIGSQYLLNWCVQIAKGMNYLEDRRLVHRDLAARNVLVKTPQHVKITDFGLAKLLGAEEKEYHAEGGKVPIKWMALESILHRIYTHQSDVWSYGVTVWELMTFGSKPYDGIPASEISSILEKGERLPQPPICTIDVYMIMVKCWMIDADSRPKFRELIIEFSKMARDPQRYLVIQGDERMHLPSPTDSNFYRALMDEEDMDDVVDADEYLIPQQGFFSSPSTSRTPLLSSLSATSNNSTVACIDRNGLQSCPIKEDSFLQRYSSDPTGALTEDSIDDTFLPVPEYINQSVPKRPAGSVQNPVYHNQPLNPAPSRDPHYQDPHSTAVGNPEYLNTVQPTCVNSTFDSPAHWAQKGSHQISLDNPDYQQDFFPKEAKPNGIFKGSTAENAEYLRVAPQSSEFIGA
# [7] = target: Tyrosine-protein kinase Fes/Fps (Homo sapiens) (UniProt P07332); assay: Binding affinity to wild-type human partial length FES (I527 to R822 residues) expressed in bacterial expression system assessed as residual binding level at 10 uM by Kinomescan method relative to control
# [8] = test system: Receptor-type tyrosine-protein kinase FLT3 (Homo sapiens), P36888 [D835H]; assay: Binding affinity to human partial length FLT3 D835H mutant (V592 to Y969 residues) expressed in bacterial expression system assessed as residual binding level at 10 uM by Kinomescan method relative to control
# [9] = test system: Receptor-type tyrosine-protein kinase FLT3 (Homo sapiens), P36888 [UNDEFINED MUTATION]; assay: Binding affinity to human partial length FLT3 ITD mutant expressed in bacterial expression system assessed as residual binding level at 10 uM by Kinomescan method relative to control
# [10] = test system: Receptor-type tyrosine-protein kinase FLT3 (Homo sapiens), P36888 [K663Q]; assay: Binding affinity to human partial length FLT3 K663Q mutant (V592 to Y969 residues) expressed in bacterial expression system assessed as residual binding level at 10 uM by Kinomescan method relative to control
# [11] = target: Tyrosine-protein kinase Fyn (Homo sapiens) (UniProt P06241); assay: Binding affinity to wild-type human partial length FYN (T243 to L534 residues) expressed in bacterial expression system assessed as residual binding level at 10 uM by Kinomescan method relative to control
# [12] = target: Cyclin-G-associated kinase (Homo sapiens) (UniProt O14976); assay: Binding affinity to wild-type human partial length GAK (G13 to Y338 residues) expressed in bacterial expression system assessed as residual binding level at 10 uM by Kinomescan method relative to control
# [13] = target: Homeodomain-interacting protein kinase 1 (Homo sapiens) (UniProt Q86Z02); assay: Binding affinity to wild-type human partial length HIPK1 (M146 to I555 residues) expressed in mammalian expression system assessed as residual binding level at 10 uM by Kinomescan method relative to control
# [14] = target: Serine/threonine-protein kinase 4 (Homo sapiens) (UniProt Q13043); assay: Binding affinity to wild-type human full length MST1 (M1 to F487 residues) expressed in bacterial expression system assessed as residual binding level at 10 uM by Kinomescan method relative to control
# Serine/threonine-protein kinase 4 (Homo sapiens), sequence (Q13043 whole entry, the tested form may be a part): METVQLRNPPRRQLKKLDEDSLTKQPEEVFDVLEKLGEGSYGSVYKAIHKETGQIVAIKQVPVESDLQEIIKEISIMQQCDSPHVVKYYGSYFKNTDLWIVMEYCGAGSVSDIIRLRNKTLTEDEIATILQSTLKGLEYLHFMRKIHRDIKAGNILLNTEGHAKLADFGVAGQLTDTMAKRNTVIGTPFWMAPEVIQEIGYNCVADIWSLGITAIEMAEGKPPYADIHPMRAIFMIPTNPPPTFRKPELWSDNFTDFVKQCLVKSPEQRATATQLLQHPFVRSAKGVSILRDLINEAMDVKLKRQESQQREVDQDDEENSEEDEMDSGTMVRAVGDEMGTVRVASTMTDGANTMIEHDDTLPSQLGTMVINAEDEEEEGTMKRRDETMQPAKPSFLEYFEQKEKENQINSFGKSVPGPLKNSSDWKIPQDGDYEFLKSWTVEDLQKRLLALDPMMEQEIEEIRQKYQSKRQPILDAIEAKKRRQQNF
# [15] = target: Serine/threonine-protein kinase PAK 2 (Homo sapiens) (UniProt Q13177); assay: Binding affinity to wild-type human partial length PAK2 (P151 to R525 residues) expressed in bacterial expression system assessed as residual binding level at 10 uM by Kinomescan method relative to control
# [16] = target: Cyclin-dependent kinase 2 homolog (Plasmodium falciparum (isolate 3D7)) (UniProt P61075); assay: Binding affinity to wild-type Plasmodium falciparum full length PK5 (M1 to N288 residues) expressed in mammalian expression system assessed as residual binding level at 10 uM by Kinomescan method relative to control
# [17] = target: Phosphatidylinositol 3-kinase C2 domain-containing subunit gamma (Homo sapiens) (UniProt O75747); assay: Binding affinity to wild-type human partial length PIK3C2G (M1 to I1446 residues) expressed in mammalian expression system assessed as residual binding level at 10 uM by Kinomescan method relative to control
# [18] = target: Phosphatidylinositol 5-phosphate 4-kinase type-2 beta (Homo sapiens) (UniProt P78356); assay: Binding affinity to wild-type human full length PIP5K2B (M1 to T416 residues) expressed in bacterial expression system assessed as residual binding level at 10 uM by Kinomescan method relative to control
# [19] = target: Phosphatidylinositol 5-phosphate 4-kinase type-2 gamma (Homo sapiens) (UniProt Q8TBX8); assay: Binding affinity to wild-type human partial length PIP5K2C (M1 to A421 residues) expressed in mammalian expression system assessed as residual binding level at 10 uM by Kinomescan method relative to control
# [20] = target: cAMP-dependent protein kinase catalytic subunit beta (Homo sapiens) (UniProt P22694); assay: Binding affinity to wild-type human full length PKAC-beta (M1 to F351 residues) expressed in bacterial expression system assessed as residual binding level at 10 uM by Kinomescan method relative to control
# [21] = target: High affinity nerve growth factor receptor (Homo sapiens) (UniProt P04629); assay: Binding affinity to wild-type human partial length TRKA (G475 to G790 residues) expressed in mammalian expression system assessed as residual binding level at 10 uM by Kinomescan method relative to control
# [22] = target: Serine/threonine-protein kinase 25 (Homo sapiens) (UniProt O00506); assay: Binding affinity to wild-type human partial length YSK1 (V14 to H295 residues) expressed in bacterial expression system assessed as residual binding level at 10 uM by Kinomescan method relative to control
# Serine/threonine-protein kinase 25 (Homo sapiens), sequence (O00506 whole entry, looked up, the tested form may be a part): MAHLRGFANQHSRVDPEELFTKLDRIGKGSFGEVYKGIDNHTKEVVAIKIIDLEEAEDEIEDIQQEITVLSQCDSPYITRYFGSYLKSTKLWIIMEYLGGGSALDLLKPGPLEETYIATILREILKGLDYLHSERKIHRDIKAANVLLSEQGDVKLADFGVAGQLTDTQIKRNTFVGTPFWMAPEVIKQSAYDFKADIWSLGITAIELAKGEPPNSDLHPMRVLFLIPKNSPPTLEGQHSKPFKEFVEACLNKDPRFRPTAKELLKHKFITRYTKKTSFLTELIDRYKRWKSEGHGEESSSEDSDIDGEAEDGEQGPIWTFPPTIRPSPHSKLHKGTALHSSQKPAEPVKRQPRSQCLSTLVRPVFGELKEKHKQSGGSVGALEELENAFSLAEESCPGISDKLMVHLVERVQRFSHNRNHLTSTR
# [23] = target: Mitogen-activated protein kinase kinase kinase 19 (Homo sapiens) (UniProt Q56UN5); assay: Binding affinity to wild-type human partial length YSK4 (T1019 to H1328 residues) expressed in mammalian expression system assessed as residual binding level at 10 uM by Kinomescan method relative to control
# Mitogen-activated protein kinase kinase kinase 19 (Homo sapiens), sequence (Q56UN5 whole entry, the tested form may be a part): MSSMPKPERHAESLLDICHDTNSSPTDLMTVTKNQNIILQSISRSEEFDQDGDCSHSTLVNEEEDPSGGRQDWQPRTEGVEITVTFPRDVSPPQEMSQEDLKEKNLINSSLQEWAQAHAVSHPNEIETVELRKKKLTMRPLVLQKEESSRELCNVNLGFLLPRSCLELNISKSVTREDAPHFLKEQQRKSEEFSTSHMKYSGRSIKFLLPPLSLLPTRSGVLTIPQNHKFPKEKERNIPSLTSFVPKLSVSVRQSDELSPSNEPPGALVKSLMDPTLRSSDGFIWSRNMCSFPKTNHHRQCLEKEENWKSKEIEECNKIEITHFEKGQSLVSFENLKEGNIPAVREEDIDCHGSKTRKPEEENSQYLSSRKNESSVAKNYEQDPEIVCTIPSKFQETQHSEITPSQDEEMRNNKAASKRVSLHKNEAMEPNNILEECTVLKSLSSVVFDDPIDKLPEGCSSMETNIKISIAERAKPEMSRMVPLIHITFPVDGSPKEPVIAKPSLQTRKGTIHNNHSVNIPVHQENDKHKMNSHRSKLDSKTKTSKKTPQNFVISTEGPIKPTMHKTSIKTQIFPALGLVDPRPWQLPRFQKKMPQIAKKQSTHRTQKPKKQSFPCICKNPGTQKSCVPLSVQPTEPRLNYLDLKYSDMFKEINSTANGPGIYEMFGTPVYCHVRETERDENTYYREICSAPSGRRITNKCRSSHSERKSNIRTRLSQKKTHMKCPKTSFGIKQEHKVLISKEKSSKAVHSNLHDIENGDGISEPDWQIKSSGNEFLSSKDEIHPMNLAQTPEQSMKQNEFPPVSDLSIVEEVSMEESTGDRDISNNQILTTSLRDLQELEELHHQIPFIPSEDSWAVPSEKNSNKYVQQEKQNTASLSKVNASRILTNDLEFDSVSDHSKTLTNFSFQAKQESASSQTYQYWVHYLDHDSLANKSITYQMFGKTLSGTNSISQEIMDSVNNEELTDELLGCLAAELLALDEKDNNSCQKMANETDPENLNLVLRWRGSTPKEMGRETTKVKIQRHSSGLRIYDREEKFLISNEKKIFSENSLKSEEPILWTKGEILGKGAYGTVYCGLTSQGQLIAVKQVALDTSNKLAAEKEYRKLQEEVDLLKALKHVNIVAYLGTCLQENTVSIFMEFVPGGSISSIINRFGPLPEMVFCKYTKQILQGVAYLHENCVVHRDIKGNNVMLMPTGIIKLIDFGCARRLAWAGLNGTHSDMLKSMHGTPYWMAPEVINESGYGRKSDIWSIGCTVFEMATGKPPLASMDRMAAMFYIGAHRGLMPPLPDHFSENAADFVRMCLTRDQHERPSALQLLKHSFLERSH
# [24] = Stability of compound in D2O at 0.012 mmol followed by TBHP addition measured after 24 hrs by 1H-NMR spectroscopy; assay type: physicochemical
# [25] = test system: NIH3T3; assay: Inhibition of TBHP-induced ferroptosis in mouse NIH/3T3 cells after 12 hrs by WST-8 assay; assay type: functional, cell-based; settings: NIH3T3, 12 h
smiles,measurement,setting,value
CC(C)N1C(=O)C(NCCCN(C)C)=C(c2cn(C)c3ccccc23)C1=O.Cl,Activity,[1],90%
same,Activity,[2],99%
same,Activity,[3],92%
same,Activity,[4],100%
same,Activity,[5],95%
same,Activity,[6],88%
same,Activity,[7],100%
same,Activity,[8],88%
same,Activity,[9],82%
same,Activity,[10],97%
same,Activity,[11],100%
same,Activity,[12],94%
same,Activity,[13],100%
same,Activity,[14],93%
same,Activity,[15],100%
same,Activity,[16],87%
same,Activity,[17],84%
same,Activity,[18],100%
same,Activity,[19],83%
same,Activity,[20],98%
same,Activity,[21],100%
same,Activity,[22],94%
same,Activity,[23],96%
same,Stability,[24],Stable
same,IC50,[25],1.8 µM
